Data on one compound can be found in patent US6187800A, “Method for the prevention and treatment of mastitis” (Novartis Animal Health U.S., Inc., priority 1997, dated 2001).

The test system of data set [1] is pathogens causing bovine mastitis. Kind of data set: Activity against mastitis pathogens (general statement). The data set is classed as cell-based.
The nature of data set [2]: Hydrophobicity and water solubility.

The structures appear in SMILES notation.

On to `C/C=C(\NC(=O)c1csc(-c2csc(-c3ccc4c(n3)-c3csc(n3)[C@H]([C@@H](C)O)NC(=O)c3csc(n3)[C@H](C(C)C)NC(=O)c3csc(n3)/C(=C/C)NC(=O)[C@H]([C@@H](C)O)NC(=O)c3csc-4n3)n2)n1)C(=O)NCC(C)=O` [P2, micrococcin P2], for which, in data set [1], the “activity against pathogens causing bovine mastitis” value is “highly active against pathogens causing bovine mastitis”. In data set [2], the hydrophobicity result is recorded as “highly hydrophobic” and the solubility in water entry is “poorly soluble in water”.
